Results as given in paper PMC3919815, “Anti-Tumor Effects of Novel 5-O-Acyl Plumbagins Based on the Inhibition of Mammalian DNA Replicative Polymerase Activity” (PLoS ONE, 2014).
Where “and” joins values, the source holds several entries; their conditions need not be identical. Equal entries are not always repeated.

Experiments:
Assay in all cases: Cancer cell viability, MTT assay
Type in all cases: cell-based, human
HCT116 (colon cancer) = details: 48 h
Procedure: (§1) The following human cancer cell lines were obtained from the American Type Culture Collection (Manassas, VA, USA): lung (A549), prostate (DU145 and PC3), colon (HCT116 and HT-29), cervix (HeLa), hepatocellular liver (HepG2), breast (MCF-7), and pancreatic cancer (PANC-1). These cells were cultured in RPMI 1640 medium supplemented with 10% fetal bovine serum, penicillin (100 units/mL), streptomycin (100 µg/mL), and 1.6 mg/mL NaHCO3 at 37°C in a humid atmosphere of 5% CO2/95% air. For the cell viability assay, cells were seeded at 1×10^3 cells/well in a 96-well microplate with various concentrations of the test compounds, and incubated for 48 h. MTT (3-(4,5-dimethylthiazol-2-yl)-2,5-diphenyl tetrazolium bromide) solution was added to a final concentration 0.6 mg/mL in Milli-Q purified water for 2 h, after which time the medium was discarded and the cells lysed in DMSO. A540 was then measured in a microplate reader (Model 680, Bio-Rad Laboratories, Hercules, CA, USA).

HeLa (cervical cancer) = details: 48 h, mean ± SD (n = 5)
Procedure: as §1

[1] = tested on: HT-29 cells (colon cancer); details: 48 h, mean ± SD (n = 5)
Procedure: as §1

[2] = tested on: PANC-1 (pancreatic cancer); details: 48 h, mean ± SD (n = 5)
Procedure: as §1

[3] = tested on: HepG2 (hepatocellular liver cancer); details: 48 h, mean ± SD (n = 5)
Procedure: as §1

## CCCCCCCC/C=C\CCCCCCCC(=O)Oc1cccc2c1C(=O)C=C(C)C2=O [2f, 5-O-oleoyl-2-methyl-1,4-naphthoquinone]
HCT116 (colon cancer); 10 µM, MTT, control = 100%
  cell proliferation rate: less than 40%
HCT116 (colon cancer); 10 and 100 µM, MTT, Fig. 5
  cell proliferation inhibitory effect compared among the compounds (in words): strongest effects on cancer cell proliferation suppression
HCT116 (colon cancer); MTT assay, mean ± SD (n = 5)
  LD50 values: 6.5 µM and 6.5 ± 0.6 µM
HeLa (cervical cancer)
  LD50 values: 21.0 ± 2.5 µM
[1]
  LD50 values: 2.9 ± 0.4 µM
[1]; listed as C18:1-acyl plumbagin
  LD50 values: 2.9 µM
[2]
  LD50 values: 16.1 ± 1.8 µM
[3]
  LD50 values: 7.4 ± 0.8 µM
